We go through ten compounds from ChEMBL document CHEMBL1201862, “PubChem BioAssay data set” (2004).

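Method: 48-hour compound exposure of cells in 96-well plates, five concentrations, linear interpolation of endpoints. Here, GI50 denotes the concentration required for 50% inhibition of growth.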 The source made the active and inactive calls. Rule as the data show it: active = GI50 up to about 1.1 µM and inactive = higher.

Test systems include NCI-H522; SF-539; IGROV-1; RPMI-8226; SK-MEL-5; HOP-62; Malme-3M; NCI-H23; OVCAR-3; SF-295; HCT-15; SNB-75; RXF 393; TK-10; SK-MEL-28; HOP-92.
Experiment in all cases: NCI anticancer screen, dose series, 48 h

Consider `CS(=O)(=O)NNS(=O)(=O)c1ccc(F)cc1`, for which the GI50 in the assay with NCI-H522, with SF-539, in the assay with IGROV-1, in the assay with RPMI-8226, with SK-MEL-5 and in the assay on HOP-62 was > 100 µM (inactive) each time. The GI50 was > 100 µM (inactive) with Malme-3M; > 100 µM (inactive) in the assay on NCI-H23; > 100 µM (inactive) in the assay on OVCAR-3; > 100 µM (inactive) in the assay on SF-295; more than 100 µM in the assay with HCT-15; > 100 µM (inactive) in the assay on SNB-75. Besides, the GI50 with RXF 393 and in the assay on TK-10 was > 100 µM (inactive) each time.
Turning to `CCN(CC)CCC1(C2CCCCC2)CCC(=O)NC1=O` (configuration not stated), the GI50 in the assay on NCI-H522, in the assay on SF-539, in the assay with IGROV-1, with RPMI-8226, with SK-MEL-5 and in the assay with HOP-62 was > 100 µM (inactive) in each case. Moreover, the GI50 is > 100 µM (inactive) with SK-MEL-28; > 100 µM (inactive) in the assay with Malme-3M; > 100 µM (inactive) with NCI-H23; > 100 µM (inactive) in the assay with OVCAR-3; > 100 µM (inactive) in the assay on SF-295; more than 100 µM in the assay on HCT-15. Further, the GI50 in the assay with SNB-75, in the assay on RXF 393 and in the assay with TK-10 was > 100 µM (inactive) in each case.
Take `COc1ccc2c(c1)[n+]([O-])c(-c1ccc(Cl)c(Cl)c1)c(N)[n+]2[O-]`: the GI50 was 14.3 µM (inactive) in the assay on NCI-H522; 23 µM (inactive) in the assay with SF-539; > 100 µM (inactive) in the assay on HOP-92; 27 µM (inactive) with IGROV-1; 31.3 µM (inactive) in the assay on RPMI-8226; 16.5 µM (inactive) in the assay on SK-MEL-5. Besides, the GI50 is 60.8 µM (inactive) in the assay on HOP-62; 27 µM (inactive) in the assay on SK-MEL-28; 23.6 µM (inactive) with Malme-3M; 15.8 µM (inactive) in the assay with NCI-H23; 26.1 µM (inactive) in the assay on OVCAR-3; 78.3 µM (inactive) in the assay on SF-295. Moreover, the figures for the GI50 in the assay with HCT-15 and in the assay with SNB-75 were 33.3 µM and 44.7 µM (inactive), respectively.
Turning to `N=C(N)NS(=O)(=O)c1ccc(NC(=O)c2cccc3c(N)c4ccccc4nc23)cc1`, the GI50 with NCI-H522, in the assay on SF-539, in the assay on IGROV-1, in the assay with RPMI-8226, in the assay on SK-MEL-5 and in the assay with HOP-62 was > 100 µM (inactive) in each case. Besides, the GI50 in the assay on SK-MEL-28 was > 100 µM (inactive); in the assay with Malme-3M, > 100 µM (inactive); with NCI-H23, > 100 µM (inactive); in the assay with OVCAR-3, 84.9 µM (inactive); in the assay with SF-295, > 100 µM (inactive); in the assay with HCT-15, more than 100 µM. Moreover, the GI50 was 96.2 µM (inactive) in the assay with SNB-75, > 100 µM (inactive) in the assay on RXF 393 and > 100 µM (inactive) in the assay with TK-10.
As for `Cc1cc(C)nc(NS(=O)(=O)c2ccc(Nc3c4ccc(Cl)cc4nc4c(C(=O)Nc5ccc(S(N)(=O)=O)cc5)cccc34)cc2)n1`, the GI50 in the assay with NCI-H522 is 10.9 µM (inactive); with SF-539, 17.2 µM (inactive); in the assay with RPMI-8226, 21.5 µM (inactive); with HOP-62 it was 14.1 µM (inactive); with SK-MEL-28, 33.8 µM (inactive); in the assay on Malme-3M, 33 µM (inactive). Moreover, the GI50 in the assay on NCI-H23 is 15.1 µM (inactive); with OVCAR-3 it was 15.5 µM (inactive); with SF-295, 18.2 µM (inactive); in the assay with HCT-15, 17.9 µM; in the assay with SNB-75, 20.3 µM (inactive); in the assay with RXF 393 it was 13.3 µM (inactive). Moreover, the GI50 with TK-10 is 36.3 µM (inactive).
As to `CCCCCCCCCCCCCS(=O)(=O)NCC(N)=O`, the GI50 with NCI-H522, in the assay with SF-539, with HOP-92, in the assay with IGROV-1, with SK-MEL-5 and in the assay on HOP-62 was > 100 µM (inactive) throughout. The GI50 is > 100 µM (inactive) in the assay with SK-MEL-28; > 100 µM (inactive) in the assay on Malme-3M; > 100 µM (inactive) in the assay with NCI-H23; > 100 µM (inactive) with OVCAR-3; > 100 µM (inactive) with SF-295; more than 100 µM with HCT-15. Also, the GI50 is 25.6 µM (inactive) with SNB-75, > 100 µM (inactive) in the assay with RXF 393 and > 100 µM (inactive) in the assay with TK-10.
In the case of `CCCC(C(=O)OC)C1N/C(=N/C#N)N(Cc2ccccc2)C1=O` (configuration not stated), the GI50 in the assay with NCI-H522, in the assay with IGROV-1, in the assay on RPMI-8226, in the assay with SK-MEL-5, with HOP-62 and in the assay on SK-MEL-28 was > 100 µM (inactive) in each case. Also, the GI50 in the assay with Malme-3M was > 100 µM (inactive); with NCI-H23 it was > 100 µM (inactive); with OVCAR-3, > 100 µM (inactive); with SF-295, > 100 µM (inactive); in the assay on HCT-15 it was more than 100 µM; in the assay with SNB-75 it was 22.9 µM (inactive). The GI50 in the assay on RXF 393 and in the assay on TK-10 was > 100 µM (inactive) each time.
Turning to `COc1ccccc1N1C(=O)C2c3[nH]c4ccccc4c3C3CCC(C(C)(C)C)CC3C2C1=O` (configuration not stated), the GI50 in the assay on NCI-H522, in the assay with SF-539, with HOP-92, in the assay with IGROV-1, in the assay with RPMI-8226 and in the assay on SK-MEL-5 was > 100 µM (inactive) throughout. The GI50 with HOP-62 is > 100 µM (inactive); with SK-MEL-28 it was > 100 µM (inactive); in the assay on Malme-3M, > 100 µM (inactive); in the assay with NCI-H23, > 100 µM (inactive); in the assay on SF-295, > 100 µM (inactive); in the assay with HCT-15 it was more than 100 µM. Further, the GI50 with SNB-75 and with RXF 393 was > 100 µM (inactive) each time.
For `N#CCCN(c1ccc(/C=N/c2nc(-c3ccccc3)cs2)cc1)S(=O)(=O)c1ccccc1`, the GI50 in the assay with NCI-H522 was 31.6 µM (inactive); in the assay on SF-539, > 100 µM (inactive); in the assay with IGROV-1 it was > 100 µM (inactive); with RPMI-8226, 44.4 µM (inactive); with SK-MEL-5 it was 35 µM (inactive); with HOP-62, 96.6 µM (inactive). In addition, the GI50 in the assay on SK-MEL-28 was 85.3 µM (inactive); in the assay on Malme-3M it was > 100 µM (inactive); in the assay on NCI-H23 it was 78.9 µM (inactive); in the assay on OVCAR-3, 39.8 µM (inactive); in the assay on SF-295, 46.2 µM (inactive); with HCT-15, more than 100 µM. The GI50 in the assay with SNB-75 was 19.2 µM (inactive); with TK-10, 86.5 µM (inactive).
Consider `O=C1NC(=O)/C(=N\c2cccc3c(=O)[nH][nH]c(=O)c23)C(c2nc3ccccc3s2)C1=O` (configuration not stated), for which the GI50 in the assay on NCI-H522, with HOP-92, with IGROV-1, in the assay on SK-MEL-5, in the assay on HOP-62 and in the assay with SK-MEL-28 was > 100 µM (inactive) throughout. Also, the GI50 in the assay on Malme-3M was > 100 µM (inactive); in the assay with NCI-H23, > 100 µM (inactive); with OVCAR-3, > 100 µM (inactive); with SF-295, > 100 µM (inactive); with HCT-15, more than 100 µM; in the assay with SNB-75, > 100 µM (inactive). The GI50 in the assay with RXF 393 and in the assay with TK-10 was > 100 µM (inactive) throughout.
